Results on five molecules are retold here after patent publication US9932572B2, “Modified Caspase polypeptides and uses thereof” (BELLICUM PHARMACEUTICALS, INC., priority 2013, dated 2018).

Changes are numbered by the printed parent chain. Names may count otherwise. Like-named read-outs stand apart in the source and are kept apart here.

The test system of series [1] is iCasp9-ΔCD19-transduced MSCs. In words: In vivo killing of MSCs in SCID mouse model (qPCR). Also noted: species or system SCID mice.
Series [2] has as its system iCasp9M.IRES.GFPhigh-transduced CTLs. In words: SCID mouse-human xenograft model, human CD3+/GFP+ T cells in tumors. The series is classed as in vivo, NOD/SCID mice. Particulars: single dose of CID (50 μg AP20187 i.p.) vs carrier; tumors 3 days after. As for the experimental part: Non-obese diabetic severe combined immunodeficient (NOD/SCID) mice, 6 to 8 weeks of age, were irradiated (250 rad) and injected subcutaneously in the right flank with 10×10^6 to 15×10^6 LCLs resuspended in Matrigel (BD Bioscience). Two weeks later mice bearing tumors that were approximately 0.5 cm in diameter were injected into the tail vein with a 1:1 mixture of nontransduced and iCasp9.I.GFPhigh-transduced EBV CTLs (total 15×10^6). At 4 to 6 hours prior and 3 days after CTL infusion, mice were injected intraperitoneally with recombinant hIL-2 (2000 U; Proleukin; Chiron). On day 4, the mice were randomly segregated in 2 groups: 1 group received CID (50 μg AP20187, intraperitoneally) and 1 group received carrier only (16.7% propanediol, 22.5% PEG400, and 1.25% Tween 80, intraperitoneally). […] By FACS analysis, the number of GFP+ cells within the gated CD3^+ population was evaluated. […]
The function of iCasp9M in vivo, is graphically illustrated in FIG. 7. […] On day 3 after CTL administration, mice received either CID (50 μg AP20187; (black diamonds, n=6) or carrier only (black squares, n=5) and on day 6 the presence of human CD3+/GFP+ T cells in the tumors was analyzed. Human CD3+ T cells isolated from the tumors of a control group of mice that received only nontransduced CTLs (15×10^6 CTLs; n=4) were used as a negative control for the analysis of CD3+/GFP+ T cells within the tumors.

In a further series the test system is non-transduced cells. Nature of the series: Viability of non-transduced cells with AP20187. The series is classed as cell-based, human. To be noted: non-transduced cells (n=6). As for the experimental part:
(§1) Suicide gene functionality was assessed by adding a small molecule synthetic homodimerizer, AP20187 (Ariad Pharmaceuticals; Cambridge, Mass.), at 10 nM final concentration the day following CD19 immunomagnetic selection. Cells were stained with annexin V and 7-amino-actinomycin (7-AAD)(BD Pharmingen) at 24 hours and analyzed by flow cytometry. Cells negative for both Annexin V and 7-AAD were considered viable, cells that were annexin V positive were apoptotic, and cells that were both annexin V and 7-AAD positive were necrotic. The percentage killing induced by dimerization was corrected for baseline viability as follows: Percentage killing=100%−(% Viability in AP20187-treated cells÷% Viability in non-treated cells).

The subject of series [3] is gene-modified allodepleted cells. In words: Induction of apoptosis with AP20187 in gene-modified allodepleted cells (annexin V/7-AAD). The series is classed as cell-based, human. As for the experimental part: as §1
Cells were maintained in T cell medium containing 50 U/ml IL-2 until 22 days after transduction. A portion of cells was reactivated on 24-well plates coated with […] OKT3 and 1 μg/ml anti-CD28 (Clone CD28.2, BD Pharmingen, San Jose, Calif.) for 48 to 72 hours. CD19 expression and suicide gene function in both reactivated and non-reactivated cells were measured on day 24 or 25 post transduction.

A further series concerns iCasp9-transduced MSCs. Nature of the series: Apoptosis studies in vitro, undifferentiated MSCs (annexin V-PE/7-AAD). The series is classed as cell-based, human. To be noted: magnetically immunoselected iCasp9-CD19-positive cells after exposure to CID. As for the experimental part: Undifferentiated MSCs. The chemical inducer of dimerization (CID) (AP20187; ARIAD Pharmaceuticals, Cambridge, Mass.) was added at 50 nM to iCasp9-transduced MSCs cultures in complete medium. Apoptosis was evaluated 24 hours later by FACS analysis, after cell harvest and staining with annexin V-PE and 7-AAD in annexin V binding buffer (BD Biosciences, San Diego, Calif.). Control iCasp9-transduced MSCs were maintained in culture without exposure to CID.

A further series has as its system CD3+ΔCD19+ cells. In words: CASPALLO phase 1 clinical trial, AP1903 in patients with GvHD after iCasp9+ T cells. The series is classed as in vivo, human. Particulars: after AP1903 administration. The source says:
Three patients received iCasp9+ T cells after haplo-CD34^+ stem cell transplantation (SCT), at dose levels between about 1×10^6 to about 3×10^6 cells/kg.

The conditions of series [4]: cited from earlier work.
Series [5] has as its target chimeric Caspase-9 polypeptide (Homo sapiens, UniProt P62942, F37V). To be noted: cited from earlier work.
The subject of the next series is HEK293T/16 cells. Nature of the series: Secreted alkaline phosphatase (SEAP) reporter-based surrogate killing assay. The series is classed as cell-based, human. To be noted: for relative SEAP activity Units (basal activity): no AP1903, higher SEAP = lower basal activity; for basal signaling: compared to iCasp9 WT; for cost of higher IC50 to AP1903: versus unmodified iCasp9. As for the experimental part:
FIG. 45 provides an analysis of SEAP assays. To examine both basal signaling and AP1903-induced activity, 10^6 early-passage HEK293T/16 cells were co-transfected with various amounts of plasmids expressing Caspase-9 mutants along with 500 ng of SEAP reporter plasmid, used as a surrogate marker for cell viability. […] of the mixture was seeded onto each well of a 96-well plate. […] For the assay, 4-MUP was hydrolyzed by SEAP to 4-methylumbelliferon, a metabolite that can be excited at 364 nm and detected at an emission of 448 nm. Because SEAP is used as a marker for cell viability, reduced SEAP readings correspond with increased iCaspase-9 activities.
Early passage HEK293T/16 (ATCC, Manassas, Va.) was maintained in IMDM, GlutaMAX™ (Life Technologies, Carlsbad, Calif.) supplemented with 10% FBS, 100 U/mL penicillin, and 100 U/mL streptomycin until transfection in a humidified, 37° C., 5% CO2/95% air atmosphere. Cells in logarithmic-phase growth were transiently transfected with 800 ng to 2 μg of expression plasmid encoding iCasp9 mutants and 500 ng of an expression plasmid encoding SRα promoter driven SEAP per million cells in 15-mL conical tubes. […] GeneJammer® Transfection Reagent at a ratio of 3 μl per ug of plasmid DNA was used to transiently transfect HEK293T/16 in the absence of antibiotics. 100 μl or 2 mL of the transfection mixture was added to each well in 96-well or 6-well plate, respectively.
Briefly, after 65° C. heat denaturation for 45 minutes to reduce background caused by endogenous (and serum-derived) alkaline phosphatases that are sensitive to heat, 5 μl of supernatants was added to 95 μl of PBS and added to 100 μl of substrate buffer, containing 1 μl of 100 mM 4-methylumbelliferyl phosphate (4-MUP; Sigma, St. Louis, Mo.) re-suspended in 2 M diethanolamine. Hydrolysis of 4-MUP by SEAP produces a fluorescent […] with excitation/emission (355/460 nm), which can be easily measured. Assays were performed in black opaque 96-well plates to minimize fluorescence leakage between wells (FIG. 45).

Where [6] appears, read: 10 nM, 24 hours, day after immunomagnetic selection.

Chain of chimeric Caspase-9 polypeptide (P62942 2-108 F37V limits assumed): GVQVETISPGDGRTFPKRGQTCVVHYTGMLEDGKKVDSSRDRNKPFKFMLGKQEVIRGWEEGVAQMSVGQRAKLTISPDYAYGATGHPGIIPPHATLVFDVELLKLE

As to `CC[C@H](C(=O)N1CCCC[C@H]1C(=O)O[C@H](CCc1ccc(OC)c(OC)c1)c1cccc(OCC(=O)NCC(CNC(=O)COc2cccc([C@@H](CCc3ccc(OC)c(OC)c3)OC(=O)[C@@H]3CCCCN3C(=O)[C@@H](CC)c3cc(OC)c(OC)c(OC)c3)c2)CN(C)C)c1)c1cc(OC)c(OC)c(OC)c1` [AP20187], the “proportion of surviving iCasp9-positive cells, % of the original population” value in [1] was 0.7%. Further, in series [2], the “reduction in the number of human CD3+/GFP+ T cells” value was above 99%. Besides, the “viability with AP20187” value with non-transduced cells is “about 86%”. Also, in series [3] (setting [6]), the “AP20187-treated cells remained viable” value was “about 5.5%” and the “Killing efficiency after correction for baseline viability” value is “about 92.9%”. Moreover, in series [3] (reactivated, CD25 positive cells), the killing efficiency entry is “about 93%”. Moreover, the “selected cells become apoptotic” value with iCasp9-transduced MSCs is reported as “More than 95%”.

Consider `CC[C@H](C(=O)N1CCCC[C@H]1C(=O)O[C@H](CCc1ccc(OC)c(OC)c1)c1cccc(OCC(=O)NCCNC(=O)COc2cccc([C@@H](CCc3ccc(OC)c(OC)c3)OC(=O)[C@@H]3CCCCN3C(=O)[C@@H](CC)c3cc(OC)c(OC)c(OC)c3)c2)c1)c1cc(OC)c(OC)c(OC)c1` (relative stereo) [AP1903, 2-Piperidinecarboxylic acid, 1-[(2S)-1-oxo-2-(3,4,5-trimethoxyphenyl)butyl]-, 1,2-ethanediylbis[imino(2-oxo-2,1-ethanediyl)oxy-3,1-phenylene[(1R)-3-(3,4-dimethoxyphenyl)propylidene]] ester, [2S-[1(R*),2R*[S*[S*[1(R*),2R*]]]]]-(9CI)], for which the “resolution of skin and liver aGvHD” value with CD3+ΔCD19+ cells was at most 24 h. The “safety / adverse effects in Phase I study” value in series [4] (0.01 mg/kg to 1.0 mg/kg dose range, healthy volunteers, listed as API903) is listed as “No serious adverse events”. Besides, the “plasma levels, % of maximal concentration” value in series [4] (2 hours post-dose) is recorded as around 7%; in series [4] (10 hours post-dose) it was around 1%. Also, in series [4] (Phase I study), the Doses well-tolerated result is recorded as “up to 1 mg/kg”. Besides, in series [5], the “amount of AP1903 needed in vitro for effective signaling of cells” value was 10 to 100 nM.

B1: N405Q: chimeric modified Caspase-9 polypeptide, SEQ ID NO: 26 (protein)
chain: GFGDVGALESLRGNADLAYILSMEPCGHCLIINNVNFCRESGLRTRTGSNIDCEKLRRRFSSLHFMVEVKGDLTAKKMVLALLELARQDHGALDCCVVVILSHGCQASHLQFPGAVYGTDGCPVSVEKIVNIFNGTSCPSLGGKPKLFFIQACGGEQKDHGFEVASTSPEDESPGSNPEPDATPFQEGLRTFDQLDAISSLPTPSDIFVSYSTFPGFVSWRDPKSGSWYVETLDDIFEQWAHSEDLQSLLLRVANAVSVKGIYKQMPGCFQFLRKKLFFKTS
In the case of B1, the “relative SEAP activity Units (basal activity)” value (“relative SEAP activity Units” for short) with HEK293T/16 cells (1 μg iCasp9 per million cells) was 179081 relative SEAP activity Units. The “relative SEAP activity Units” value in the series on HEK293T/16 cells (2 μg iCasp9 per million cells) was 175529 relative SEAP activity Units. In addition, in the series on HEK293T/16 cells, the basal signaling entry was “lower basal signaling” and the “cost of higher IC50 to AP1903” value is given as below 10 fold.

B2: D330A: chimeric modified Caspase-9 polypeptide, SEQ ID NO: 24 (protein)
chain: B1 chain with D196A, Q271N
On to B2, for which, in the series on HEK293T/16 cells (1 μg iCasp9 per million cells), the “relative SEAP activity Units” value was 148928 relative SEAP activity Units. Besides, in the series with HEK293T/16 cells (2 μg iCasp9 per million cells), the “relative SEAP activity Units” value is 136863 relative SEAP activity Units. For the same molecule, in the series with HEK293T/16 cells, the basal signaling entry is recorded as “lower basal signaling” and the “cost of higher IC50 to AP1903” value is recorded as below 5 fold.

B3: D330A-N405Q: chimeric modified Caspase-9 polypeptide, double mutant, SEQ ID NO: 28 (protein)
chain: B1 chain with D196A
B3: the results for the “relative SEAP activity Units” value in the series with HEK293T/16 cells (1 μg iCasp9 per million cells) and in the series with HEK293T/16 cells (2 μg iCasp9 per million cells) were 205772 relative SEAP activity Units and 174366 relative SEAP activity Units, respectively. Also, the basal signaling result in the series with HEK293T/16 cells is recorded as “lower basal signaling”.
